Assay results reported in PubChem BioAssay AID330 (DTP/NCI, 2004).
Several values for one entry are separate records, joined by “and”; a condition that tells them apart may be missing. Equal values may be shown once. Inconclusive results and toxic doses are left out.

Tested on: P388 leukemia ip, CD2F1 mice, survival T/C
Assay: NCI In Vivo Anticancer Drug Screen. Data for tumor model P388 Leukemia (intraperitoneal) in CD2F1 (CDF1) mice
Conditions: endpoint: median survival time, higher = longer survival
Summary of the method: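 Mice carrying the transplanted tumor received test compound or vehicle. Survival was recorded in each group, and the value is the treated-group measurement divided by that of the vehicle-treated control group.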

[1] = dose: 50.0 mg/kg/injection, schedule: Q01DX005 (ip), vehicle: saline with Tween-80
[2] = dose: 100.0 mg/kg/injection, schedule: Q01DX005 (ip), vehicle: saline with Tween-80
[3] = dose: 200.0 mg/kg/injection, schedule: Q01DX005 (ip), vehicle: saline with Tween-80
[4] = dose: 60.0 mg/kg/injection, schedule: Q01DX005 (ip), vehicle: saline with Tween-80
[5] = dose: 120.0 mg/kg/injection, schedule: Q01DX005 (ip), vehicle: saline with Tween-80
[6] = dose: 50.0 mg/kg/injection, schedule: Q01DX009 (ip), vehicle: saline
[7] = dose: 200.0 mg/kg/injection, schedule: Q01DX009 (ip), vehicle: saline
[8] = dose: 100.0 mg/kg/injection, schedule: Q04DX003 (ip), vehicle: Klucel (hydroxypropylcellulose) (HPC)
[9] = dose: 200.0 mg/kg/injection, schedule: Q04DX003 (ip), vehicle: Klucel (hydroxypropylcellulose) (HPC)
[10] = dose: 400.0 mg/kg/injection, schedule: Q04DX003 (ip), vehicle: Klucel (hydroxypropylcellulose) (HPC)
[11] = dose: 25.0 mg/kg/injection, schedule: Q01DX009 (ip), vehicle: saline with Tween-80

## CC(C)(C)c1cc(/C=C2/OC(=O)c3ccccc32)cc(C(C)(C)C)c1O
dose: 100.0 mg/kg/injection, schedule: Q04DX002 (ip), vehicle: saline
  T/C: 99 % of control
dose: 200.0 mg/kg/injection, schedule: Q04DX002 (ip), vehicle: saline
  T/C: 100 % of control
dose: 400.0 mg/kg/injection, schedule: Q04DX002 (ip), vehicle: saline
  T/C: 96 % of control

## CC1CCCC(C)N1C(=O)C(Cl)(Cl)Cl (stereo unspecified)
[1]
  T/C: 100 % of control
[2]
  T/C: 100 % of control
[3]
  T/C: 100 % of control

## Clc1ccc(COCc2ccccc2Cn2ccnc2)cc1
[4]
  T/C: 95 % of control
[5]
  T/C: 99 % of control

## CC(O)CCCC(C)O (stereo unspecified)
[6]
  T/C: 102 % of control
dose: 100.0 mg/kg/injection, schedule: Q01DX009 (ip), vehicle: saline
  T/C: 112 % of control
[7]
  T/C: 109 % of control

## COc1nc(N)c2ncn(C3CCCO3)c2n1 (stereo unspecified)
dose: 12.5 mg/kg/injection, schedule: Q01DX001 (ip), vehicle: Klucel (hydroxypropylcellulose) (HPC)
  T/C: 100 % of control
dose: 25.0 mg/kg/injection, schedule: Q01DX001 (ip), vehicle: Klucel (hydroxypropylcellulose) (HPC)
  T/C: 106 % of control

## Nc1cc2c(cc1C=O)OCO2
[8]
  T/C: 99 % of control
[9]
  T/C: 93 % of control
[10]
  T/C: 107 % of control

## C[n+]1cccc(C(=O)OCC(C)(C)N(Cl)Cl)c1
[6]
  T/C: 109 % of control

## CCOC(=O)C1=C(N)CCC2(C1)c1ccccc1-c1ccccc12
dose: 100.0 mg/kg/injection, schedule: Q01DX001 (ip), vehicle: saline with Tween-80
  T/C: 97 % of control
dose: 200.0 mg/kg/injection, schedule: Q01DX001 (ip), vehicle: saline with Tween-80
  T/C: 103 % of control
dose: 400.0 mg/kg/injection, schedule: Q01DX001 (ip), vehicle: saline with Tween-80
  T/C: 93 % of control

## Cl/N=C1/C=CC(Cl)=C/C1=N/Cl
dose: 25.0 mg/kg/injection, schedule: Q01DX005 (ip), vehicle: saline
  T/C: 100 % of control and 101 % of control
dose: 50.0 mg/kg/injection, schedule: Q01DX005 (ip), vehicle: saline
  T/C: 101 % of control and 102 % of control and 115 % of control
dose: 100.0 mg/kg/injection, schedule: Q01DX005 (ip), vehicle: saline
  T/C: 105 % of control and 106 % of control and 120 % of control
dose: 200.0 mg/kg/injection, schedule: Q01DX005 (ip), vehicle: saline
  T/C: 98 % of control and 101 % of control and 110 % of control

## COc1cccc2c1C(=O)c1c(O)c3c(c(O)c1C2=O)C[C@@](O)(/C(C)=N/NC(=O)c1ccc(O)cc1)C[C@@H]3OC1CC(N)C(O)C(C)O1 (stereo partly specified)
dose: 0.12 mg/kg/injection, schedule: Q01DX009 (ip), vehicle: water
  T/C: 115 % of control
dose: 0.25 mg/kg/injection, schedule: Q01DX009 (ip), vehicle: water
  T/C: 111 % of control
dose: 0.5 mg/kg/injection, schedule: Q01DX009 (ip), vehicle: water
  T/C: 152 % of control and 157 % of control
dose: 1.0 mg/kg/injection, schedule: Q01DX009 (ip), vehicle: water
  T/C: 160 % of control
dose: 2.0 mg/kg/injection, schedule: Q01DX009 (ip), vehicle: water
  T/C: 160 % of control and 180 % of control
dose: 4.0 mg/kg/injection, schedule: Q01DX009 (ip), vehicle: water
  T/C: 161 % of control and 171 % of control
dose: 10.0 mg/kg/injection, schedule: Q01DX001 (ip), vehicle: water
  T/C: 174 % of control
dose: 16.0 mg/kg/injection, schedule: Q01DX009 (ip), vehicle: water
  T/C: 111 % of control
dose: 20.0 mg/kg/injection, schedule: Q01DX001 (ip), vehicle: water
  T/C: 117 % of control

## O=C(CCc1ccc(O)cc1)c1c(O)cc(O)cc1O
[1]
  T/C: 107 % of control
dose: 50.0 mg/kg/injection, schedule: Q01DX009 (ip), vehicle: saline + alcohol
  T/C: 112 % of control
[2]
  T/C: 108 % of control
dose: 100.0 mg/kg/injection, schedule: Q01DX009 (ip), vehicle: saline + alcohol
  T/C: 117 % of control
[3]
  T/C: 114 % of control
dose: 200.0 mg/kg/injection, schedule: Q01DX009 (ip), vehicle: saline + alcohol
  T/C: 108 % of control
dose: 400.0 mg/kg/injection, schedule: Q01DX005 (ip), vehicle: saline with Tween-80
  T/C: 114 % of control

## Cc1nsc(N)n1
dose: 6.25 mg/kg/injection, schedule: Q01DX009 (ip), vehicle: saline
  T/C: 100 % of control
dose: 6.25 mg/kg/injection, schedule: Q01DX009 (ip), vehicle: suspension in saline
  T/C: 94 % of control
dose: 12.5 mg/kg/injection, schedule: Q01DX009 (ip), vehicle: saline
  T/C: 100 % of control and 98 % of control
dose: 12.5 mg/kg/injection, schedule: Q01DX009 (ip), vehicle: suspension in saline
  T/C: 101 % of control
dose: 25.0 mg/kg/injection, schedule: Q01DX009 (ip), vehicle: saline
  T/C: 100 % of control and 98 % of control
dose: 25.0 mg/kg/injection, schedule: Q01DX009 (ip), vehicle: suspension in saline
  T/C: 102 % of control
[6]
  T/C: 99 % of control and 98 % of control
dose: 50.0 mg/kg/injection, schedule: Q01DX009 (ip), vehicle: suspension in saline
  T/C: 103 % of control

## C/C=C/N=NNc1ccccc1OC
dose: 100.0 mg/kg/injection, schedule: Q04DX003 (ip), vehicle: saline + Tween-80 + alcohol
  T/C: 107 % of control

## O=C(O)C1C2CC3C(OC(=O)C31)C2Br (stereo unspecified)
[4]
  T/C: 100 % of control
[5]
  T/C: 97 % of control
dose: 240.0 mg/kg/injection, schedule: Q01DX005 (ip), vehicle: saline with Tween-80
  T/C: 96 % of control

## CC1CC(Nc2ccc(NC3=CC(=O)OC(C)C3)cc2)=CC(=O)O1 (stereo unspecified)
[1]
  T/C: 94 % of control
[2]
  T/C: 92 % of control
[3]
  T/C: 90 % of control

## Cc1cc(=O)[nH]c2c(C)cccc12
[8]
  T/C: 96 % of control
[9]
  T/C: 98 % of control
[10]
  T/C: 99 % of control

## CC1=CC(=O)[C@@H](O)[C@]2(C)[C@H]3[C@@H](O)[C@H](O)[C@@](C)(O)[C@@H]4[C@@H](O)C(=O)O[C@H](C[C@@H]12)[C@]34C
dose: 1.0 mg/kg/injection, schedule: Q01DX009 (ip), vehicle: saline + alcohol
  T/C: 99 % of control
dose: 2.0 mg/kg/injection, schedule: Q01DX009 (ip), vehicle: saline + alcohol
  T/C: 101 % of control
dose: 4.0 mg/kg/injection, schedule: Q01DX009 (ip), vehicle: saline + alcohol
  T/C: 99 % of control
dose: 8.0 mg/kg/injection, schedule: Q01DX009 (ip), vehicle: saline + alcohol
  T/C: 99 % of control

## CCOC(=O)Nc1cc2c(c(N)n1)N=C(c1ccc(C)cc1)CN2
dose: 1.0 mg/kg/injection, schedule: Q01DX005 (ip), vehicle: saline with Tween-80
  T/C: 109 % of control
dose: 3.0 mg/kg/injection, schedule: Q01DX005 (ip), vehicle: saline with Tween-80
  T/C: 109 % of control
dose: 6.0 mg/kg/injection, schedule: Q01DX005 (ip), vehicle: saline with Tween-80
  T/C: 121 % of control

## CCOC(=O)C(=CN(C)c1ccc(Cl)cc1)C(=O)OCC
dose: 6.25 mg/kg/injection, schedule: Q01DX009 (ip), vehicle: saline with Tween-80
  T/C: 102 % of control
dose: 12.5 mg/kg/injection, schedule: Q01DX009 (ip), vehicle: saline with Tween-80
  T/C: 94 % of control
[11]
  T/C: 103 % of control
[7]
  T/C: 97 % of control

## O=C(O)c1c(Cl)n(Cc2cc(Cl)ccc2Cl)c2ccccc12
dose: 60.0 mg/kg/injection, schedule: Q01DX005 (ip), vehicle: Klucel (hydroxypropylcellulose) (HPC)
  T/C: 95 % of control
dose: 120.0 mg/kg/injection, schedule: Q01DX005 (ip), vehicle: Klucel (hydroxypropylcellulose) (HPC)
  T/C: 88 % of control

## C[CH2][Sn]([CH2]C)([N](c1ccccn1)c1ccccn1)[N](c1ccccn1)c1ccccn1
dose: 1.56 mg/kg/injection, schedule: Q01DX005 (ip), vehicle: Klucel (hydroxypropylcellulose) (HPC)
  T/C: 123 % of control
dose: 3.12 mg/kg/injection, schedule: Q01DX005 (ip), vehicle: Klucel (hydroxypropylcellulose) (HPC)
  T/C: 119 % of control
dose: 6.25 mg/kg/injection, schedule: Q01DX005 (ip), vehicle: Klucel (hydroxypropylcellulose) (HPC)
  T/C: 116 % of control and 123 % of control

## O/N=C\c1ccc(/C=N/O)cc1
dose: 50.0 mg/kg/injection, schedule: Q04DX003 (ip), vehicle: saline with Tween-80
  T/C: 100 % of control
dose: 100.0 mg/kg/injection, schedule: Q04DX003 (ip), vehicle: saline with Tween-80
  T/C: 100 % of control
dose: 200.0 mg/kg/injection, schedule: Q04DX003 (ip), vehicle: saline with Tween-80
  T/C: 95 % of control

## Nc1nc2nc(CBr)c(CBr)nc2c(=O)[nH]1
[11]
  T/C: 115 % of control
dose: 50.0 mg/kg/injection, schedule: Q01DX009 (ip), vehicle: saline with Tween-80
  T/C: 118 % of control
dose: 100.0 mg/kg/injection, schedule: Q01DX009 (ip), vehicle: saline with Tween-80
  T/C: 122 % of control
dose: 200.0 mg/kg/injection, schedule: Q01DX009 (ip), vehicle: saline with Tween-80
  T/C: 100 % of control
